Data on four molecules can be found in paper PMC8179679 (Chemical Science, 2021).

Where no end group is shown, it is not given here.

The subject of experiment [1] is E5-p53TAD1/MDM2 interaction. To be noted: for number of translocation events, % of free E5-p53TAD1 peptide: molar ratio 1 : 3 : 5; for number of translocation events N after inhibitor addition: molar ratio 1 : 3 : 5 (peptide : MDM2 : inhibitor), 10 min-current trace.
The subject of the next experiment is MDM2. The following applies: method not stated; cited from earlier work.
The next experiment has as its target MDM2 (residues 3–109) (Homo sapiens, UniProt Q00987). The experiment in a line: aerolysin nanopore detection of peptide/MDM2 interaction. It counts as binding.
A further experiment addresses aerolysin nanopore (Aeromonas hydrophila, UniProt P09167). In words: aerolysin nanopore single-channel recording of free analyte.

Sequence of aerolysin nanopore (P09167 24-445 limits assumed): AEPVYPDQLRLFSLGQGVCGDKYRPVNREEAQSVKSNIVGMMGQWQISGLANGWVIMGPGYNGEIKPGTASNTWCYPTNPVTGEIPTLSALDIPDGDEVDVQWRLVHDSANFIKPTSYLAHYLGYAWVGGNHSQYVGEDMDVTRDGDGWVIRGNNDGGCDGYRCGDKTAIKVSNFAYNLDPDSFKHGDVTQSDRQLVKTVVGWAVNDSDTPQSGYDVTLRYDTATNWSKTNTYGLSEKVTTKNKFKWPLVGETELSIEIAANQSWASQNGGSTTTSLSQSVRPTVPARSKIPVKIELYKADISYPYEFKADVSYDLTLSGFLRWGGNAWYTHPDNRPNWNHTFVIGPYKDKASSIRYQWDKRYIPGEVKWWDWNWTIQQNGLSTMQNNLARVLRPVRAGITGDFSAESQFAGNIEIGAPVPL
Sequence of MDM2 (residues 3–109) (Q00987 3-109): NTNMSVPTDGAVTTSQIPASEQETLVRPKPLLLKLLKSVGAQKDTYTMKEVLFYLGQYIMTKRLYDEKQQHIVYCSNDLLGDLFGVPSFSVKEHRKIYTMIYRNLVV

On to `CC(C)[C@@H](CS(=O)(=O)C(C)C)N1C(=O)[C@@](C)(CC(=O)O)C[C@H](c2cccc(Cl)c2)[C@H]1c1ccc(Cl)cc1` [AMG232], for which, in experiment [1], the “number of translocation events, % of free E5-p53TAD1 peptide” value is recorded as around 99.8% and the “number of translocation events N after inhibitor addition” value worked out at 1570.
As to `CN[C@@H](C)C(=O)N[C@H](C(=O)N1CCC[C@H]1c1nc(C(=O)c2ccc(F)cc2)cs1)C1CCCCC1` [LCL161], in the experiment on MDM2, the “MDM2 binding (in words)” value is reported as “does not bind to MDM2”.
In the case of `COc1ccc(C2=N[C@@H](c3ccc(Cl)cc3)[C@@H](c3ccc(Cl)cc3)N2C(=O)N2CCNC(=O)C2)c(OC(C)C)c1` [Nutlin-3], in experiment [1], the “number of translocation events, % of free E5-p53TAD1 peptide” value is around 61.3% and the “number of translocation events N after inhibitor addition” value came to 965.
With EEEEESQETFSDLWKLLPEN [E5-p53TAD1], the dissociation constant (Kd) at MDM2 (residues 3–109) worked out at 1.07 ± 0.09 µM. Besides, on MDM2 (residues 3–109) (E5-p53TAD1/MDM2 complex, 140 mV), the “dwell time of extraordinarily long-lived current blockage” value is given as 0.1 s ∼ tens of min. Moreover, the “number of nanopore events N” value on aerolysin nanopore (free E5-p53TAD1 peptide, 10 min-current trace) was 1573. In addition, the “dwell time of short-lived translocation / nanopore events” value on aerolysin nanopore (free peptide) is recorded as < 10^2 ms. For the same molecule, the “mean dwell time td” value on aerolysin nanopore (free peptide, 140 mV, single exponential fit) is around 0.8 ms.
